In a melting point compilation (Tetko et al.; mined from patent text by program, amines drawn as free bases though some values may be those of a salt) one finds melting point data, which are given here for 91 compounds.

Where only a bound is given, the exact number is not on record here.

What is called melting point is the temperature, or range, at which the solid turns liquid.

With `c1ccc(CSc2ncccc2-c2ccccc2)cc1`, the melting point is 99 to 100 °C. `OC(c1ccccc1)(c1ccccc1-c1ccccc1)C1CCNCC1` (stereo unspecified) gave a melting point of 185 to 186 °C. The figure for `CSc1cccc(NC(C)=N)c1` is 134 to 135 °C; for `COc1ccc(C=C2OC(=O)c3ccccc32)cc1N` it is 148 to 153 °C; for `CCOC(=O)CSC(C)=NO` it is 90 to 92 °C. The figure for `O=C1CC(Cl)=C(Cl)c2nc3cc(Cl)ccc3c(NCc3ccccc3)c21` is 141 to 143 °C; for `O=C(CSCc1c[nH]c2ccccc12)N1CC=C(c2cccc(F)c2)CC1` it is 130 to 131 °C. As for `CC(C)(C)c1nn(-c2c(Cl)cc(C(F)(F)F)cc2Cl)c(N)c1Cl`, the melting point turned out to be 137 °C.

In turn, `O=C1CCN(C(=S)Nc2ccc(Cl)cc2)N1c1ccccc1` yielded a melting point of 136 to 139 °C. With `CC(=O)NCC=C1CCc2c(Cl)cc3nn(C)cc3c21`, the melting point was 177 to 178 °C. `COC(=O)COc1ccc([C@H]2c3ccc(O)cc3OC[C@H]2c2ccccc2)cc1` (racemic): the melting point lay within 133 to 134 °C. With `CN1C(=O)C(c2cccc(Br)c2)(c2c[nH]c(C=O)c2)N=C1N` (stereo unspecified), the melting point fell in the range of 142 to 151 °C. For the compound `CNC(=O)Oc1ccc(NS(=O)(=O)c2ccc(C)cc2)c(C)c1`, the melting point was 181 to 184 °C. Turning to `COc1ccccc1C(=O)COc1cccc(NC(=O)c2ccccn2)c1`, the melting point fell in the range of 136 to 137 °C. In turn, `Cc1c(OCC2=NCCN2)ccc(Br)c1NS(C)(=O)=O` displayed a melting point of 272 °C. `CC(COc1ccccc1)C1CC=C2C3=C(CCC21C)C1(C)CCC(O)C(C)(C)C1CC3` (stereo unspecified): the melting point was in the range of 134 to 137 °C. `O=CC1=C(Br)CC(F)(Br)C=C1` (stereo unspecified) gave a melting point of 57 to 58 °C.

Consider `CN(C)Cc1ccc(Cc2cnc(N[N+](=O)[O-])[nH]c2=O)cn1`, for which the melting point was in the range of 234 to 238 °C.

As to `O=C(O)COc1ccc(SCc2ccc(OCc3cc(Cl)cc(Cl)c3)cc2)c2c1CCC2`, the melting point lay in the range of 134 to 135 °C. In turn, `N#CCOc1ccc2cc(-c3cc4ccccc4o3)ccc2c1Cl` came in with a melting point of 162 to 163 °C.

In the case of `CCOC(=O)C1=C(C)NC(=S)N(C(=O)OCC)C1c1ccc(OC)cc1` (stereo unspecified), the melting point was in the range of 130 to 132 °C.

Compound `O=[N+]([O-])c1ccc(C=Cc2ccncn2)cc1` showed a melting point of 213 to 215 °C.

As for `CC1CCC(Oc2cc(F)cc(C(=O)Nc3ccc(OCCN4CCOCC4)c4ccccc34)c2)CC1` (stereo unspecified), the melting point was in the range of 98 to 100 °C. `Oc1noc2ccc(Cl)cc12` had a melting point of 219 to 222 °C. As to `CC(C)c1ccccc1NC(=O)c1ccccc1SSc1ccccc1C(=O)Nc1ccccc1C(C)C`, the melting point lay within 235 to 237 °C. On to `CCOC(=O)Cc1ccc(NC(=O)C(COc2cccnc2)NS(=O)(=O)c2ccc(Br)cc2)cc1` (racemic), for which the melting point was 168 to 171 °C. Consider `Cc1nc2cccc(C3CC3CN3C(=O)c4ccccc4C3=O)c2s1` (stereo unspecified), for which the melting point fell in the range of 151 to 153 °C. For the compound `CNC(=O)c1ncn(C(OC)c2ccc(Cl)c(Cl)c2)c1C(=O)NC` (single isomer, unassigned; (+)), the melting point was 112 to 114 °C. For `CCOC(=O)c1ncc2[nH]c3ccc(I)cc3c2c1COC`, the melting point was 204 to 206 °C. The compound `CCC(=O)Nc1c(C)c2c(c(Cc3ccc(C(C)C)cc3)c1C)OCC2` registered a melting point of 177 to 178 °C. Take `CCOC(=O)c1cnc2c(I)cc(COC(C)=O)cc2c1O`: the melting point was 119 to 123 °C. The figure for `O=C(Nc1ccc(C(F)(F)F)cc1)C1=NN(c2ccccc2)CC1c1ccc(F)cc1` (stereo unspecified) is 184 °C. `CCCNC(=O)c1cnc2cccc(C)n2c1=O` showed a melting point of 158 to 160 °C. As to `COc1cc2ncnc(Nc3nccc4ccccc34)c2cc1OC`, the melting point was 198 to 199 °C. With `COC1=C(OC)C(=O)C(CCCCC[C@H]2CC[C@H](OC(C)=O)CC2)=C(C)C1=O`, the melting point is 33 to 34 °C.

In turn, `O=C(N[C@H]1CC[C@H](CCN2CCN(c3nccc4c3OCC4)CC2)CC1)c1ccc(C(F)(F)F)cc1` returned a melting point of 242 °C. For the compound `COc1ccc(NS(=O)(=O)C(F)(F)F)cc1CC1C(=O)c2cc(OCc3nc4cc(F)c(F)cc4s3)ccc2OC1(C)C` (stereo unspecified), the melting point is 198 to 200 °C. The figure for `CC(C1CC1)N1C(=O)c2cc([N+](=O)[O-])cnc2C1=O` (stereo unspecified) is 96 to 99 °C. The figure for `COc1ccc(S(=O)(=O)N(CCO)c2ccc(Cl)cc2C(O)c2ccccc2Cl)cc1OC` (stereo unspecified) is 86.2 °C; for `Nc1c(Cl)nc2ccccc2c1NCc1ccccn1` it is 98 to 102 °C. `CSc1nc(CO)c(CO)n1-c1ccccc1` showed a melting point of 137 to 138 °C. On to `CCC(=O)c1[nH]c(=O)[nH]c1C`, for which the melting point lay within 270 to 271 °C.

`CC(C)Oc1cc(N)ccc1-n1cccc1` displayed a melting point of 55 to 57 °C. On to `CC(C)(C)NCC(O)COc1ccc(N)cc1` (stereo unspecified), for which the melting point lay within 125 to 127 °C.

With `CC(C)c1cccc(C(C)C)c1NC(=O)NC1CC(C)(C)c2ccccc2C1(C)C` (stereo unspecified), the melting point lay within 180 to 181 °C. Regarding `COc1cc2c(cc1OC)NC(=O)CCC2`, the melting point was 153 to 156 °C. Regarding `COc1ccccc1OCC1SCCN1C(=O)CI` (stereo unspecified), the melting point lay in the range of 81 to 83 °C. Regarding `CS(=O)(=O)c1ccc(-c2c(Cl)c3cccccc-3c2-c2ccccc2)cc1`, the melting point was 140 to 142 °C.

Compound `CC(C)OCCNS(=O)(=O)NC(=O)OCc1ccccc1` had a melting point of 88 to 89 °C. Consider `CCNc1ccc(NCCO)cc1[N+](=O)[O-]`, for which the melting point turned out to be 106 °C. The figure for `C=C(C)COc1ccc(C(=O)c2ccccc2)cc1` is 85 to 86.5 °C. `CCCC=C(OC(C)=O)C(=Cc1ccc(Cl)cc1)n1cncn1`: the melting point is 112 to 113 °C. The compound `CCCCc1oc2ccccc2c1C(=O)c1ccc2c(Br)c(OC(Cc3ccccc3)C(=O)O)ccc2c1` (stereo unspecified) displayed a melting point of 165 to 167 °C.

Compound `COc1ccc(C)cc1NC(=O)Nc1ccc(N2CCN(C(=O)OC(C)(C)C)C(C)C2)cc1` (stereo unspecified) showed a melting point of 167 to 168 °C.

`CCOCCOc1ccccc1COc1ccc2c(c1)C=C(C(=O)O)CCS2(=O)=O` had a melting point of 134 to 136 °C. In turn, `CN(c1ccc(OC(F)(F)C(F)F)cc1)c1c([N+](=O)[O-])cc([N+](=O)[O-])cc1C(F)(F)F` showed a melting point of 91 to 92 °C.

In the case of `OCc1cn(-c2cc(F)cc(C(F)(F)F)c2)cn1`, the melting point was 144 to 145 °C. The compound `CC(C)(C)OC(=O)NCc1ccc2cc(O)ccc2c1` came in with a melting point of 173 to 174 °C. The figure for `O=C(O)C1=Cc2cc(-c3ccc(F)cc3)ccc2CC1` is 213 to 214 °C; for `NNc1cc2ccccc2cc1C(=O)O` it is above 300 °C; for `Cc1c(NC(=O)c2cc3c(s2)C2CCC3C2)cccc1-c1cn(C)c(=O)c(Nc2ccc(C3C(=O)N(C)CCN3C)cc2)n1` (stereo unspecified) it is 178 to 179 °C. `CC(C)OC(=O)COCc1cc(-c2nn(C)c(C(F)(F)F)c2Cl)c(F)cc1Cl` returned a melting point of 55 °C. `CCc1nnc(-c2ccc(OC)cc2)n1-c1ccc(OC)cc1` showed a melting point of 122 °C. On to `NC(=O)c1cc(CO)ccc1[N+](=O)[O-]`, for which the melting point is 143 to 145 °C.

Consider `O=C1CCC2CCC(=O)N12`, for which the melting point fell in the range of 179 to 182 °C.

For the compound `CCOC(=O)c1c(O)cc(C(F)(F)Cl)nc1C(F)(F)F`, the melting point lay within 56.5 to 58.5 °C. Compound `CON(Cc1ccc(F)cc1Cl)C(=O)C1=C(O)C(=O)N(C)C1` displayed a melting point of 152 to 155 °C. Consider `CCCCc1nc(SCCF)c(C(=O)O)n1Cc1ccc(-c2ccccc2C(=O)O)cc1`, for which the melting point lay within 185 to 186 °C. The figure for `CSc1ccc(C2=C(c3ccc(C(F)(F)F)cc3)CCC2)cc1` is 60 to 61.5 °C. In turn, `COc1ccc(CC(=O)Nc2cccc3nc(N[C@@H]4CCc5ccccc54)ccc23)cc1` returned a melting point of 175 °C. `C1=C(c2c[nH]c3ccccc23)CCNC1`: the melting point was in the range of 185 to 186 °C.

In turn, `CNc1c(F)cc2c(=O)c(C(=O)O)cn(-c3cc(N)c(F)cc3Cl)c2c1Cl` displayed a melting point of 273 °C. The figure for `CC(C)Nc1nc2cc(F)c(F)cc2[nH]1` is 188 to 189 °C; for `O=c1c(-c2ccccc2)c(-c2ccccc2)oc2cc(OCC3CO3)ccc12` (stereo unspecified) it is 143 to 145 °C. The figure for `O=c1ccn(CCO)c(Cc2cccc(F)c2)c1O` is 235 to 242 °C; for `O=C(CC(Cc1cccc2ccccc12)C(=O)N1C(=O)OCC1Cc1ccccc1)N1CCOCC1` (stereo unspecified) it is 80 to 82 °C; for `O=C(c1cccnn1)c1ccccc1Cl` it is 105 to 107 °C. On to `CC(=O)Nc1c(CC(=O)O)cccc1Oc1ccccc1`, for which the melting point lay within 155 to 156 °C. `NC(=O)c1c(Cl)c(-c2cccnc2)n2c1CN(S(=O)(=O)c1ccc(C(F)(F)F)cc1)CC2` came in with a melting point of 205 to 206 °C.

For the compound `Cc1ccc(C(=O)C2=C(O)C(=O)N(c3ccc(C)cn3)C2c2ccc(C(C)C)cc2)cc1` (stereo unspecified), the melting point was 259 to 261 °C. As to `CC(OCc1cc2nc(Cl)ccc2n1S(=O)(=O)c1ccc2nc(N)sc2c1)C(=O)O` (stereo unspecified), the melting point was in the range of 218 to 220 °C.

On to `O=C(O)c1ccc(OC(F)(F)F)c(Cl)c1`, for which the melting point was 110 to 112 °C. The figure for `COC(=O)c1ccc2oc(-c3ccccc3OC(C)C)cc(=O)c2c1` is 154 to 155 °C.

On to `c1csc(CNc2nccc3ccccc23)c1`, for which the melting point was 86.5 to 87.5 °C. As for `COc1ccc(CCNCCc2ccc(OC)c(OC)c2)cc1OC`, the melting point lay within 56 to 58 °C. The figure for `Cc1coc(NC(=S)Nc2cc(Cl)ccc2C)n1` is 207 to 208 °C; for `C=CCP(=O)(c1ccccc1)c1ccccc1` it is 94 to 96 °C; for `CCOC(=O)C1=C(C)NC(OC)=NC1c1cccc([N+](=O)[O-])c1` (stereo unspecified) it is 101 to 103 °C. The figure for `O=C(Nc1ccccc1F)N1CCc2cc(S(=O)(=O)N3CCN(c4cccc(Cl)c4)CC3)ccc21` is 174 to 175 °C. The figure for `ClCc1c(Cl)c(Cl)c(Cl)c(Cl)c1CCl` is 83 to 84 °C.

In turn, `O=C(Cl)C=CC=Cc1ccccc1` displayed a melting point of 51 to 52 °C.
